Source: US6933296B2, “Compounds effective as β2-adrenoreceptor agonists as well as PDE4-inhibitors” (Altana Pharma B.V., priority 2000, dated 2005)

How the values were obtained:
human eosinophils = test: Inhibition of C5a-stimulated chemiluminescence in human eosinophils; type: cell-based; conditions: for IC30: Eosinophil, read-out: Inhibition of C5a-stimulated chemiluminescence [-logIC30 (mol/l)] (converted)
Description: c) Inhibition of C5a-stimulated Chemiluminescence in Human Eosinophils
Eosinophils were purified essentially as described in detail elsewhere (Hatzelmann A, Tenor H and Schudt C, Differential effects of non-selective and selective phosphodiesterase inhibitors on human eosinophil functions. Brit J Pharmacol 114: 821-831, 1995). Briefly, total granulocytes were first purified from blood (anticoagulated with 0.3% w/v sodium citrate) by dextran sedimentation, centrifugation on Ficoll Paque and hypotonic lysis of remaining red blood cells. For the further purification of the eosinophil fraction the magnetic cell separation (MACS) system from Miltenyi Biotec (Bergisch-Gladbach, Germany) was applied. Eosinophils were separated from neutrophils by negative selection using anti-CD16 microbeads in a two-step protocol using D- and BS-(formerly called B2-) separation columns. By this method human eosinophils with a purity of >99% and a viability of >97% were obtained.
The chemiluminescence (CL) assay was essentially performed as described (Hatzelmann et al., 1995). Briefly, measurements were performed in a “CL-buffer” (140 mM NaCl, 5 mM KCl, 1 mM MgCl2, 10 mM HEPES, pH 7.4) containing 1 mM CaCl2, 1 mg/ml glucose, 0.05% (w/v) BSA, 10 μM luminol and 4 μM microperoxidase (all values correspond to final concentrations in the assays) in a total volume of 0.5 ml at a cell concentration of 10^6 cells/ml. Aliquots (0.4 ml) of the cell suspension (containing luminol and microperoxidase) were preincubated for 5 min at 37° C. in the absence or presence of inhibitors (0.05 ml). Stock solutions of the inhibitors (10 mM) were prepared in DMSO and diluted 1:100 (v/v) in CL-buffer; subsequent dilutions were made in 1% DMSO/CL-buffer to achieve the final drug concentrations in the assays at a DMSO concentration of 0.1% (v/v) which by itself only weakly affected the CL response. […] After preincubation, the assays were transferred into a “Multi-biolumat LB 9505C” from Berthold (Wildbad, Germany) and stimulated by the addition of 0.05 ml C5a (dissolved in CL-buffer; 100 nM final concentration). CL was continuously recorded for 1 min (C5a) and the AUC (area under the curve) calculated. Inhibition of CL by the compounds under these conditions is given as −log IC30 (mol/l).

PDE4 = test: Inhibition of PDE4 activity (cytosol from human neutrophils, [3H]cAMP hydrolysis); type: biochemical; conditions: 0.5 μM cAMP, Motapizone 1 μM, DMSO 0.5% for (some of) examples 1-19, 1% from example 20
Method: Method for Measuring Inhibition of PDE4 Activity
PDE4 activity was determined as described by Thompson et al. (Adv Cycl Nucl Res 10: 69-92, 1979) with some modifications (Bauer and Schwabe, Naunyn-Schmiedeberg's Arch Pharmacol 311: 193-198, 1980). At a final assay volume of 200 μl (96well microtiter plates) the assay mixture contained 20 mM Tris-HCl (pH 7.4), 5 mM MgCl2, 0.5 μM cAMP, [^3H]cAMP (about 30,000 cpm/assay), the test compound and an aliquot of cytosol from human neutrophils which mainly contains PDE4 activity as described by Schudt et al. (Naunyn-Schmiedeberg's Arch Pharmacol 344: 682-690, 1991); the PDE3-specific inhibitor Motapizone (1 μM) was included to suppress PDE3 activity originating from contaminating platelets.
To minimize problems with the solubility of the compounds, starting from example 20 serial dilutions of the compounds were prepared directly in DMSO and further diluted 1:100 (v/v) in the assays to obtain now the final concentrations of the inhibitors at a DMSO concentration of 1% (v/v) which by itself only slightly affected PDE4 activity.
After preincubation for 5 min at 37° C., the reaction was started by the addition of substrate (cAMP) and the assays were incubated for further 15 min at 37° C. 50 μl of 0.2 N HCl was added to stop the reaction and the assays were left on ice for about 10 min. Following incubation with 25 μg 5′-nucleotidase (Crotalus atrox snake venom) for 10 min at 37° C., the assays were loaded on QAE Sephadex A-25 (1 ml bed volume). The columns were eluted with 2 ml of 30 mM ammonium formiate (pH 6.0) and the eluate was counted for radioactivity. Results were corrected for blank values (measured in the presence of denatured protein) which were below 5% of total radioactivity. […] The IC50-values for the compounds according to the invention for the inhibition of the PDE4 activity were determined from the concentration-inhibition curves by nonlinear-regression.

[1] = 100 nM C5a, 100 nM salbutamol included as additional cAMP trigger

Compound	melting point [°C]	IC30 (human eosinophils; [1]) [µM]	Inhibition of PDE4 activity [-logIC50] (PDE4)	effect on the CL response by itself (human eosinophils; 100 nM final concentration, C5a-stimulated)	Inhibition of C5a-stimulated chemiluminescence [-logIC30 (mol/l)] (human eosinophils; [1]) [mol/l]
COc1ccc(C2=NN(c3ccc(OCCNCC(O)c4cc(Cl)c(N)c(Cl)c4)cc3)C(=O)[C@@H]3CC=CC[C@H]23)cc1OC.O=C(O)C(=O)O (stereo partly drawn)	136 to 138	–	–	–	–
COc1ccc(C2=NN(C3CCN(CCS(=O)(=O)CCNCC(O)c4cc(Cl)c(N)c(Cl)c4)CC3)C(=O)[C@@H]3CC=CC[C@H]23)cc1OC.O=C(O)/C=C/C(=O)O (stereo partly drawn)	137 to 138	–	–	–	–
CCOc1ccc(C2=NN(C3CCN(C(=O)CNCC(O)c4cc(Cl)c(N)c(Cl)c4)CC3)C(=O)[C@@H]3CC=CC[C@H]23)cc1OCC.O=C(O)/C=C/C(=O)O (stereo partly drawn)	172 to 173	–	–	–	–
COc1ccc(C2=NN(C3CCN(C(=O)[C@H](C)NCC(O)c4cc(N)c(N)c(Cl)c4)CC3)C(=O)[C@@H]3CC=CC[C@H]23)cc1OC.O=C(O)/C=C/C(=O)O (stereo partly drawn)	130 to 131	–	–	–	–
COc1ccc(C2=NN(c3ccc(OCCCCNCC(O)c4ccc(O)c(CO)c4)cc3)C(=O)[C@@H]3CC=CC[C@H]23)cc1OC.O=C(O)/C=C/C(=O)O (stereo partly drawn)	126 to 127	–	–	–	–
COc1ccc(C2=NN(C3CCN(CCCCCCNCC(O)c4cc(Cl)c(N)c(C#N)c4)CC3)C(=O)[C@@H]3CC=CC[C@H]23)cc1OC.O=C(O)/C=C/C(=O)O (stereo partly drawn)	142 to 143	–	–	–	–
COc1ccc(C2=NN(CCNCC(O)c3cc(Cl)c(N)c(Cl)c3)C(=O)C3CC=CCC23)c2c1OC1(CCCC1)C2 (stereo not drawn) [Compound 8, (cis)-2-(2-[{2-(4-amino-3,5-dichlorophenyl)-2-hydroxyethyl}amino]-1-ethyl)-4-(2,3-dihydro-7-methoxybenzofuran-2-spiro-1′-cyclopentan-4-yl)-4a,5,8,8a-tetrahydro-2H-phthalazin-1-one]	176 to 177	0.398	8.18	–	–
COc1ccc(C2=NN(c3ccc(OCCCCNCC(O)c4cc(Cl)c(N)c(Cl)c4)cc3)C(=O)[C@@H]3CC=CC[C@H]23)cc1OC.O=C(O)/C=C/C(=O)O (stereo partly drawn) [Compound 21, (4aS,8aR)-2-(4-{4-[2-(4-Amino-3,5-dichlorophenyl)-2-hydroxy-ethylamino]-butoxyl}-phenyl)-4-(3,4-dimethoxy-phenyl)-4a,5,8,8a-tetrahydro-2H-phthalazin-1-one fumarate]	126 to 127	0.302	10	–	–
COc1ccc(C2=NN(Cc3ccc(OCCCCNCC(O)c4cc(Cl)c(N)c(Cl)c4)cc3)C(=O)[C@@H]3CC=CC[C@H]23)cc1OC.O=C(O)/C=C/C(=O)O (stereo partly drawn) [Compound 22, (4aS,8aR)-2-(4-{4-[2-(4-Amino-3,5-dichloro-phenyl)-2-hydroxy-ethylamino]-butoxy}-benzyl)-4-(3,4-dimethoxy-phenyl)-4a,5,8,8a-tetrahydro-2H-phthalazin-1-one fumarate]	119 to 120	0.2	9.79	–	–
COc1ccc(C2=NN(C3CCN(C(=S)NCCCCNCC(O)c4cc(Cl)c(N)c(Cl)c4)CC3)C(=O)[C@@H]3CC=CC[C@H]23)cc1OC (stereo partly drawn) [Compound 25, 4-[(4aS,8aR)-4-(3,4-Dimethoxy-phenyl)-1-oxo-4a,5,8,8a-tetrahydro-1H-phthalazin-2-yl]-piperidine-1-carbothioic acid {4-[2-(4-amino-3,5-dichloro-phenyl)-2-hydroxy-ethylamino]-butyl}-amide]	139 to 144	0.794	10.6	–	–
COc1ccc(C2=NN(C3CCN(S(=O)(=O)CCNCC(O)c4cc(Cl)c(N)c(Cl)c4)CC3)C(=O)[C@@H]3CC=CC[C@H]23)cc1OC.O=C(O)/C=C/C(=O)O (stereo partly drawn) [Compound 27, (4aS,8aR)-2-(1-{2-[2-(4-Amino-3,5-dichloro-phenyl)-2-hydroxy-ethylamino]-ethanesulfonyl}-piperidin-4yl)-4-(3,4-dimethoxy-phenyl)-4a,5,8,8a-tetrahydro-2H-phthalazin-1-one fumarate]	169 to 171	0.398	11.2	–	–
COc1ccc(C2=NN(C3CCN(S(=O)(=O)CCNCC(O)c4ccc(O)c(CO)c4)CC3)C(=O)[C@@H]3CC=CC[C@H]23)cc1OC (stereo partly drawn) [Compound 29, (4aS,8aR)-4-(3,4-Dimethoxy-phenyl)-2-(1-{2-[2-hydroxy-2-(4-hydroxy-3-hydroxymethyl-phenyl)-ethylamino]-ethanesulfonyl}-piperidin-4-yl)-4a,5,8,8a-tetrahydro-2H-phthalazin-1-one]	97 to 99	–	–	–	–
COc1ccc(C2=NN(C3CCN(C(=O)CCSCCNCC(O)c4cc(Cl)c(N)c(Cl)c4)CC3)C(=O)[C@@H]3CC=CC[C@H]23)cc1OC.Cl (stereo partly drawn) [Compound 30, (4aS,8aR)-2-[1-(3-{2-[2-(4-Amino-3,5-dichloro-phenyl)-2-hydroxy-ethylamino]-ethylsulfanyl}-propanoyl)-piperidin-4-yl]-4-(3,4-dimethoxy-phenyl)-4a,5,8,8a-tetrahydro-2H-phthalazin-1-one hydrochloride]	118 to 120	0.2	10.7	–	–
COc1ccc(C2=NN(C3CCN(C(=O)CCS(=O)(=O)CCNCC(O)c4cc(Cl)c(N)c(C#N)c4)CC3)C(=O)[C@@H]3CC=CC[C@H]23)cc1OC (stereo partly drawn) [Compound 32, 2-Amino-3-chloro-5-{2-[2-(3-{4-[(4aS,8aR)-4-(3,4-dimethoxy-phenyl)-1-oxo-4a,5,8,8a-tetrahydro-1H-phthalazin-2-yl]-piperidin-1-yl}-3-oxo-propane-1-sulfonyl)-ethylamino]-1-hydroxy-ethyl}-benzonitrile]	102 to 103	0.229	11.4	–	–
COc1ccc(C2=NN(C3CCN(C(=O)[C@H](C)NCC(O)c4cc(Cl)c(N)c(C#N)c4)CC3)C(=O)[C@@H]3CC=CC[C@H]23)cc1OC.Cl (stereo partly drawn) [Compound 33, 2-Amino-3-chloro-5-[2-((S)-2-{4-[(4aS,8aR)-4-(3,4-dimethoxy-phenyl)-1-oxo-4a,5,8,8a-tetrahydro-1H-phthalazin-2-yl]-piperidin-1-yl}-1-methyl-2-oxo-ethylamino)-1-hydroxy-ethyl]-benzonitrile hydrochloride]	160 to 161	0.501	10.1	–	–
CC(C)(C)NCC(O)c1ccc(O)c(CO)c1 (stereo not drawn) [salbutamol, reference compound]	–	–	–	hardly affected the CL response	–
(cis)-2-{4-(2-[{2-(4-amino-3,5-dichlorophenyl)-2-hydroxyethyl}amino]-1-ethyl}phenyl)-4-(3,4-dimethoxyphenyl)-4a,5,8,8a-tetrahydro-2H-phthalazin-1-one hemifumarate [Compound 5]	–	–	–	–	6.70
